Experimental data as given in publication PMC7445743 (Journal of Medicinal Chemistry, 2020).
Structures can show the parent of a compound that is named as a salt.

Tests used:
CAMK1G = CAMK1G (Homo sapiens, UniProt Q96NX5); settings: supplement CSV
CAMK2A = CAMK2A (Homo sapiens, UniProt Q9UQM7); settings: supplement CSV
PAK4 = PAK4 (Homo sapiens, UniProt O96013); settings: supplement CSV
SYK = SYK (Homo sapiens, UniProt P43405); settings: supplement CSV
CaMK4 = biological target: T1, CaMK4 (Homo sapiens, UniProt Q16566); settings: supplement CSV
T1 sequence (Q16566 1-473): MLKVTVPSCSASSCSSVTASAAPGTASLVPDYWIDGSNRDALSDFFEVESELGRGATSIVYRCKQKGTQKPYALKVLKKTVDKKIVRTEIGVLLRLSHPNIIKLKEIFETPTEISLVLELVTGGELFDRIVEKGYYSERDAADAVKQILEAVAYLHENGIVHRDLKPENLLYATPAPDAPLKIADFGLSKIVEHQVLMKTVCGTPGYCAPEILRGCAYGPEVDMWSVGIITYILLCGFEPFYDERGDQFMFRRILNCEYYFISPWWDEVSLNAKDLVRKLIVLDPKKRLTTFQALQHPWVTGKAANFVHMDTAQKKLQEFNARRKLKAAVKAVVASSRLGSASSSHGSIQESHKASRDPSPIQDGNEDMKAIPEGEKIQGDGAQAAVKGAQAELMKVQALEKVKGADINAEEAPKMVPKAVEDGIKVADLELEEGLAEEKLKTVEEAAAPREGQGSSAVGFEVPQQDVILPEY

DAPK1 = DAPK1 (Homo sapiens, UniProt P53355); settings: supplement CSV
GSK3β = GSK3β (Homo sapiens, UniProt P49841); settings: supplement CSV
ABL = ABL (Homo sapiens, UniProt P00519); settings: supplement CSV
DCLK1 = biological target: T2, DCLK1 (Homo sapiens, UniProt O15075); settings: supplement CSV
T2 sequence (O15075 1-740): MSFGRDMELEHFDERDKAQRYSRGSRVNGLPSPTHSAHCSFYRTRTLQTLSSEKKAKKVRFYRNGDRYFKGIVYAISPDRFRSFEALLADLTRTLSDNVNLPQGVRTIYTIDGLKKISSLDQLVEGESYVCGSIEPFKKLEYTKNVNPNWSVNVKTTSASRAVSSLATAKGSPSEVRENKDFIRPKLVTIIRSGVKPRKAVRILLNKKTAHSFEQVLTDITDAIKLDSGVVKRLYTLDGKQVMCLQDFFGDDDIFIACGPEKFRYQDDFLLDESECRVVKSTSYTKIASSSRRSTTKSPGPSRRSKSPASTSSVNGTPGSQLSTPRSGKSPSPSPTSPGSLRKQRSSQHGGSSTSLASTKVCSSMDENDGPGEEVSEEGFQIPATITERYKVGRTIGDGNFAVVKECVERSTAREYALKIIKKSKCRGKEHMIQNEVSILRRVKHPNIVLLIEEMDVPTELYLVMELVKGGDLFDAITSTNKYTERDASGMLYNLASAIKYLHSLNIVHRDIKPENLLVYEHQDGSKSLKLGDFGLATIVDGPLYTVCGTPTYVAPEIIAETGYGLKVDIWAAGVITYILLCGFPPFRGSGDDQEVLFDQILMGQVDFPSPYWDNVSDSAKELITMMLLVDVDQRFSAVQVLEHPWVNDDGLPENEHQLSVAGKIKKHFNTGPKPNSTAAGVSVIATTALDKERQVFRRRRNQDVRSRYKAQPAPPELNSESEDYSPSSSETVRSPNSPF

CK2a = CK2a (Homo sapiens, UniProt P68400); settings: supplement CSV
PIM1 = PIM1 (Homo sapiens, UniProt P11309); settings: supplement CSV
DAPK3 = DAPK3 (Homo sapiens, UniProt O43293); settings: supplement CSV
[1] = system: kinase panel (468 Assays Tested); test: Pan-kinome selectivity, competitive binding assay (KINOMEscan); settings: for S-Score(35): 1 μM
PKNB(M.tuberculosis) = biological target: T3, PKNB(M.tuberculosis) (Mycobacterium tuberculosis, UniProt P9WI81); test: KINOMEscan; type: binding
T3 construct: purchased DiscoverX (Eurofins) KINOMEscan scanMAX; first lines in-house DSF / ADP-Glo
T3 sequence (P9WI81 whole entry): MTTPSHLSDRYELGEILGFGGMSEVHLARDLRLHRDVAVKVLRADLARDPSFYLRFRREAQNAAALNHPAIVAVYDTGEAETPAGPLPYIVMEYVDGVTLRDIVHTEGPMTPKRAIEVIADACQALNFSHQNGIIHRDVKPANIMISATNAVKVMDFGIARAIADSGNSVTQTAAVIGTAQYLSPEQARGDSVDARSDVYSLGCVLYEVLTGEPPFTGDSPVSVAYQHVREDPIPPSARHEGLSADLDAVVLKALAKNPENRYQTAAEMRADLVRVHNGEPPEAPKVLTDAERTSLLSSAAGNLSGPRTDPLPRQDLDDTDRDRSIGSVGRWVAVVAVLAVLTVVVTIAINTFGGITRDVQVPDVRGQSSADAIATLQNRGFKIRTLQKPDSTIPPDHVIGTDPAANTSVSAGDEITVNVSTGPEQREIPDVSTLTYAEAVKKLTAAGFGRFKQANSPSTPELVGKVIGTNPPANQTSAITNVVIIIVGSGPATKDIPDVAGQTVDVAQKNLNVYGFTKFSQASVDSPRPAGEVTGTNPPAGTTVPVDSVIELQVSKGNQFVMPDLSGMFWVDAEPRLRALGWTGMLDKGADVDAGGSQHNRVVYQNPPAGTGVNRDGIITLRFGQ

GSK3β, sequence (P49841 whole entry, species assumed): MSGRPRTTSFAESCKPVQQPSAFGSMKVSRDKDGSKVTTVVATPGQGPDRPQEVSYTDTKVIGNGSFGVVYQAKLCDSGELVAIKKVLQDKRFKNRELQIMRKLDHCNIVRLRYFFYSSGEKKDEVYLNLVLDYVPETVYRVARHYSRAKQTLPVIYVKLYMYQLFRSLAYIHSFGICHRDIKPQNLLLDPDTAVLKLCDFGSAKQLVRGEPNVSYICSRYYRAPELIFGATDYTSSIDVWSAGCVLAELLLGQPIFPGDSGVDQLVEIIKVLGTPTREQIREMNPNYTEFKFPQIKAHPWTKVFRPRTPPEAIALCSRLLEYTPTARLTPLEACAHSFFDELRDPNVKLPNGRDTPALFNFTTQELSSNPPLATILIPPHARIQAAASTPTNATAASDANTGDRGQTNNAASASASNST
CAMK2A, sequence (Q9UQM7 whole entry): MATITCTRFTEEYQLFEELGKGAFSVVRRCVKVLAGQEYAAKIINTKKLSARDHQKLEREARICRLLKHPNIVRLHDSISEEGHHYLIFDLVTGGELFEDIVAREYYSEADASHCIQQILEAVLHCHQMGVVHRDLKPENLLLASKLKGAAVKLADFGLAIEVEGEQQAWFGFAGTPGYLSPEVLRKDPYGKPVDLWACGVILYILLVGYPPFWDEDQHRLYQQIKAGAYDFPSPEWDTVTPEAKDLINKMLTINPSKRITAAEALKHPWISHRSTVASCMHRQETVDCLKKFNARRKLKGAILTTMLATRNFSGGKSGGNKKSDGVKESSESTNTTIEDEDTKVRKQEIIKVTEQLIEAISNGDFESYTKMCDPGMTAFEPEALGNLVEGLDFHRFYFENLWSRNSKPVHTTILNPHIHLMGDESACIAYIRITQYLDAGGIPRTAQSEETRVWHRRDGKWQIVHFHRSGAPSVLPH
PAK4, sequence (O96013 whole entry): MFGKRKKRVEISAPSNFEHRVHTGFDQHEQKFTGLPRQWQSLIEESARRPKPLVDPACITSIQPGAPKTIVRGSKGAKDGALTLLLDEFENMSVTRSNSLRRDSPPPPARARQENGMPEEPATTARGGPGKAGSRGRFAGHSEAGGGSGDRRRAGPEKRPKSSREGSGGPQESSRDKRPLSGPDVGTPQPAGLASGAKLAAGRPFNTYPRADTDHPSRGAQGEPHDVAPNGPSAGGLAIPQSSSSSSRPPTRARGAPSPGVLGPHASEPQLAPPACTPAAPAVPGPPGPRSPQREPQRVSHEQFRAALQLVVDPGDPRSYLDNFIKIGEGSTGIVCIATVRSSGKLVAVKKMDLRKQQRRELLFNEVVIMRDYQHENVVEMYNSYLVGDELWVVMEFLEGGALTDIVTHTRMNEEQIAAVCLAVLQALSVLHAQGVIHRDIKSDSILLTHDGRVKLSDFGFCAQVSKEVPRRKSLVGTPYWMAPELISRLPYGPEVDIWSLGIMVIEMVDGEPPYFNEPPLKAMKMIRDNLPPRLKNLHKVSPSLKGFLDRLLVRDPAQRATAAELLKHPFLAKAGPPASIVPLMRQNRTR
CAMK1G, sequence (Q96NX5 whole entry): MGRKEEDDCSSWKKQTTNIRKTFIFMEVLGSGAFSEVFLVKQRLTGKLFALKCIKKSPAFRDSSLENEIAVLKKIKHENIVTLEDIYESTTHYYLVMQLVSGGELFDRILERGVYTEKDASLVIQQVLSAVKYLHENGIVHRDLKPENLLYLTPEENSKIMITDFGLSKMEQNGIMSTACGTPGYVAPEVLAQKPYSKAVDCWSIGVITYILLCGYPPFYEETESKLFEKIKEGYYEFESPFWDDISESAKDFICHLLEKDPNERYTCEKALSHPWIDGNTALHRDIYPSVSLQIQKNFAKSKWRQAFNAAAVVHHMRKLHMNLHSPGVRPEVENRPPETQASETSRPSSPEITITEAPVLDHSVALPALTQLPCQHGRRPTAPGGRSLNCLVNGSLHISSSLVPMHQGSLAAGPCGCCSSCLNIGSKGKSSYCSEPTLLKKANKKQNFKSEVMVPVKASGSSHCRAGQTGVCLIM
ABL, sequence (P00519 whole entry, species assumed): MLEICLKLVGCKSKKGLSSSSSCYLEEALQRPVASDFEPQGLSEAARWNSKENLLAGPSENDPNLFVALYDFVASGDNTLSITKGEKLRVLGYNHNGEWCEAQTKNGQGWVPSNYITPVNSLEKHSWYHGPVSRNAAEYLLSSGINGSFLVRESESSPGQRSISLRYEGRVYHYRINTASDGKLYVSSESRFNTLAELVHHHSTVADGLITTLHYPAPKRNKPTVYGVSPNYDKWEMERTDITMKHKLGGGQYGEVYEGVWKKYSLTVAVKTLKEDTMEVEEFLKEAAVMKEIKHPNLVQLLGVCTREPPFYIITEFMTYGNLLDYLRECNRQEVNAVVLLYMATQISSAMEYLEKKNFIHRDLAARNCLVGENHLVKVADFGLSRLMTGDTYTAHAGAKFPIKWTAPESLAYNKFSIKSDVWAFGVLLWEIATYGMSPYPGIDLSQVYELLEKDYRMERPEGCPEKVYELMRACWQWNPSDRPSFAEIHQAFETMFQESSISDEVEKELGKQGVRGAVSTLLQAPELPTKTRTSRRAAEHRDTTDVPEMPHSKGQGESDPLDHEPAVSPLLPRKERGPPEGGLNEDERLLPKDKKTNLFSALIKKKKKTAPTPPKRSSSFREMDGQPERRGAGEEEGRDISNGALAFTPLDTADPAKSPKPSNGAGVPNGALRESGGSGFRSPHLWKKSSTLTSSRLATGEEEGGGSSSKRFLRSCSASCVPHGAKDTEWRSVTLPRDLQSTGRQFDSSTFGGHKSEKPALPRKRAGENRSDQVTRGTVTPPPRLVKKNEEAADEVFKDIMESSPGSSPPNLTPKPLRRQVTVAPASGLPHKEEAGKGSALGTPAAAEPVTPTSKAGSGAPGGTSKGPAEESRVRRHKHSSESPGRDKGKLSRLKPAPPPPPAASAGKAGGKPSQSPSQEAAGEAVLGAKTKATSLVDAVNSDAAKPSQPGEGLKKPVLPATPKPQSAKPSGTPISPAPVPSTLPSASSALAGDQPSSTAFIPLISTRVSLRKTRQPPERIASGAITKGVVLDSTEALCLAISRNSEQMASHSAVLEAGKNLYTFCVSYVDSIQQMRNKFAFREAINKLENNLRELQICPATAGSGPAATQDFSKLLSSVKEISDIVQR
DAPK3, sequence (O43293 whole entry): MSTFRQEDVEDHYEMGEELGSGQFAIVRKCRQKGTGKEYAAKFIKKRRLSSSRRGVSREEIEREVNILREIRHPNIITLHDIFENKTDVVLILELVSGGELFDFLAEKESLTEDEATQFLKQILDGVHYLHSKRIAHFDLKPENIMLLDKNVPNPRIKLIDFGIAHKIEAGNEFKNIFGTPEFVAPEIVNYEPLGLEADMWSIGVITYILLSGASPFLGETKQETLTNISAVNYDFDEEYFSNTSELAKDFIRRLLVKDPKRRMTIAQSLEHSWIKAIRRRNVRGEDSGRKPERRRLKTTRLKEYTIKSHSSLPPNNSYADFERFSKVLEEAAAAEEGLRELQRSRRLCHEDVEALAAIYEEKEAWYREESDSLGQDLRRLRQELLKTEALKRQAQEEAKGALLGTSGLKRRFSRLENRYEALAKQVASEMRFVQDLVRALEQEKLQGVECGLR
CK2a, sequence (P68400 whole entry): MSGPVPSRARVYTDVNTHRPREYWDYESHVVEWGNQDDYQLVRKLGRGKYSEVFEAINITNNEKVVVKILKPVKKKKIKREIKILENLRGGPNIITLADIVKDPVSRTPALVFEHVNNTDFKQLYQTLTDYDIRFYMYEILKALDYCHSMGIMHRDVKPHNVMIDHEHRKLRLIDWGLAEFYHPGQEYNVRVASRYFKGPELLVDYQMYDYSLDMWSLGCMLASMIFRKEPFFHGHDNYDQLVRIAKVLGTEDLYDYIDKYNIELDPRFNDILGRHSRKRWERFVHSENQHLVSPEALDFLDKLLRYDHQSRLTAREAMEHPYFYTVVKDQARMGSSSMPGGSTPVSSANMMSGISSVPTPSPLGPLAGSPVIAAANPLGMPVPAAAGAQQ
PIM1, sequence (P11309 whole entry): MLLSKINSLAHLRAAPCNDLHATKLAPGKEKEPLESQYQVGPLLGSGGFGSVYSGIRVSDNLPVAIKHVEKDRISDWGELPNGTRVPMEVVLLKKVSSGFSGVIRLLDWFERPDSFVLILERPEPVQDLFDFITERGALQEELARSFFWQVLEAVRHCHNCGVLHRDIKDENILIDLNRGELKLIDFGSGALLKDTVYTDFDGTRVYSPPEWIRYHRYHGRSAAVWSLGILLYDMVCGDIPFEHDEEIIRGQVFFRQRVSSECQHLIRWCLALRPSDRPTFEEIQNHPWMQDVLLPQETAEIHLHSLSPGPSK

| SMILES | CAMK1G Tm (CAMK1G) | CAMK2A Tm (CAMK2A) | PAK4 Tm (PAK4) | SYK Tm (SYK) | CAMK4 Tm (CaMK4) | DAPK1 Tm (DAPK1) | GSK3B Tm (GSK3β) | ABL1 Tm (ABL) | DCAMKL1 Tm (DCLK1) | CK2alpha Tm (CK2a) | PIM1 Tm (PIM1) | DAPK3 Tm (DAPK3) | S-Score(35) [1] | wild-type kinases inhibited by >90% ([1]; competitive binding assay at 1 μM) | remaining binding at 1 µM (PKNB(M.tuberculosis)) [%] |
| --- | --- | --- | --- | --- | --- | --- | --- | --- | --- | --- | --- | --- | --- | --- | --- |
| NC(=O)c1cnc(N2CCCC(N)C2)nc1Nc1cccc(C(F)(F)F)c1 (racemic) [Compound 6, (rac)-2-(3-Aminopiperidin-1-yl)-4-((3-(trifluoromethyl)phenyl)amino)pyrimidine-5-carboxamide Hydrochloride] | 8.82 0C | 1.21 0C |  |  |  |  |  |  |  |  |  |  |  |  |  |
| NCCNc1ncc(C(N)=O)c(Nc2cccc(C(F)(F)F)c2)n1 [Compound 1, 2-((2-Aminoethyl)amino)-4-((3-(trifluoromethyl)phenyl)amino)pyrimidine-5-carboxamide hydrochloride, reference compound] | 4.11 0C | 0.21 0C | 4.62 0C | 7.51 0C | 1.34 0C | 2.33 0C | 3.4 0C | 1.33 0C | 0.11 0C | 0.87 0C | 1 0C | 4.05 0C |  |  |  |
| CNC(=O)c1cnc(NCCN)nc1Nc1cccc(C(F)(F)F)c1 [Compound 2, 2-((2-Aminoethyl)amino)-N-methyl-4-((3-(trifluoromethyl)phenyl)amino)pyrimidine-5-carboxamide, reference compound] | 0.15 0C | -0.22 0C |  |  |  |  |  |  |  |  |  |  |  |  |  |
| CN(CCN)c1ncc(C(N)=O)c(Nc2cccc(C(F)(F)F)c2)n1 [Compound 3, 2-((2-Aminoethyl)(methyl)amino)-4-((3-(trifluoromethyl)phenyl)amino)pyrimidine-5-carboxamide Hydrochloride] | 4.91 0C | 0.49 0C | 2.1 0C |  |  | 3.2 0C |  | 1.75 0C |  | 1.26 0C | 4.42 0C |  |  |  |  |
| CNCCN(C)c1ncc(C(N)=O)c(Nc2cccc(C(F)(F)F)c2)n1 [Compound 4, 2-(Methyl(2-(methylamino)ethyl)amino)-4-((3-(trifluoromethyl)phenyl)amino)pyrimidine-5-carboxamide Hydrochloride] | 1.13 0C | 0.1 0C |  |  |  |  |  |  |  |  |  |  |  |  |  |
| CN(C)CCN(C)c1ncc(C(N)=O)c(Nc2cccc(C(F)(F)F)c2)n1 [Compound 5, 2-((2-(Dimethylamino)ethyl)(methyl)amino)-4-((3-(trifluoromethyl)phenyl)amino)pyrimidine-5-carboxamide Hydrochloride] | 2.78 0C | 0.29 0C |  |  |  |  |  |  |  |  |  |  |  |  |  |
| NC(=O)c1cnc(N2CCC[C@H](N)C2)nc1Nc1cccc(C(F)(F)F)c1 [Compound 8, (S)-2-(3-Aminopiperidin-1-yl)-4-((3-(trifluoromethyl)phenyl)amino)pyrimidine-5-carboxamide Hydrochloride] | 9.55 0C | 1.08 0C | 4.73 0C |  |  |  |  |  |  |  |  |  | 0.12 | 11 | 84 |
| NC(=O)c1cnc(N2CCC[C@H](N)C2)nc1Nc1cc(C(F)(F)F)cc(C(F)(F)F)c1 [Compound 9] | 16.18 0C | 1.09 0C | 3.17 0C |  | 7.06 0C |  | -0.47 0C |  | 1.22 0C |  |  | 8.72 0C |  |  |  |
| CC(C)(C)c1cccc(Nc2nc(N3CCC[C@H](N)C3)ncc2C(N)=O)c1 [Compound 10, (S)-2-(3-Aminopiperidin-1-yl)-4-((3-(tert-butyl)phenyl)amino)pyrimidine-5-carboxamide Hydrochloride] | 9.24 0C | 0.77 0C | 1.24 0C |  | 3.78 0C |  | 0.67 0C |  | 0.3 0C |  |  | 5.43 0C |  |  |  |
| CS(=O)(=O)c1cccc(Nc2nc(N3CCC[C@H](N)C3)ncc2C(N)=O)c1 [Compound 11, (S)-2-(3-Aminopiperidin-1-yl)-4-((3-(methylsulfonyl)phenyl)amino)pyrimidine-5-carboxamide] | 7.26 0C | 0.53 0C | 3.75 0C |  | 4.49 0C |  | 1.4 0C |  | -0.09 0C |  |  | 6.85 0C |  |  |  |
| NC(=O)c1cnc(N2CCC[C@H](N)C2)nc1Nc1cccc(-c2ccccc2)c1 [Compound 12, (S)-4-([1,1′-Biphenyl]-3-ylamino)-2-(3-aminopiperidin-1-yl)pyrimidine-5-carboxamide Hydrochloride] | 12.19 0C | 2.35 0C | 5.67 0C |  | 4.98 0C |  | 0.32 0C |  | 1.64 0C |  |  | 8.03 0C |  |  |  |
| CC(C)(C#N)c1cccc(Nc2nc(N3CCC[C@H](N)C3)ncc2C(N)=O)c1 [Compound 13, (S)-2-(3-Aminopiperidin-1-yl)-4-((3-(2-cyanopropan-2-yl)phenyl)amino)pyrimidine-5-carboxamide] | 6.35 0C | 0.6 0C | 1.98 0C |  | 4.38 0C |  | 0.46 0C |  | 0.32 0C |  |  | 6.82 0C |  |  |  |
| CC(C)(C)c1cc(Nc2nc(N3CCC[C@H](N)C3)ncc2C(N)=O)cc(C(C)(C)C)c1 [Compound 14, (S)-2-(3-Aminopiperidin-1-yl)-4-((3,5-di-tert-butylphenyl)amino)pyrimidine-5-carboxamide] | 10.22 0C | 0.69 0C | -0.72 0C |  | 6.39 0C |  | -0.63 0C | -0.28 0C | 1.34 0C |  |  | 4.82 0C | 0.01 |  | 97 |
| CC(C)c1cc(Nc2nc(N3CCC[C@H](N)C3)ncc2C(N)=O)cc(C(C)C)c1 [Compound 15, (S)-2-(3-Aminopiperidin-1-yl)-4-((3,5-diisopropylphenyl)amino)pyrimidine-5-carboxamide] | 10.33 0C | 2.19 0C | 4.76 0C |  | 6.46 0C |  | -0.2 0C |  | 1.96 0C |  |  | 8.08 0C |  |  |  |
